Where a name gives a salt, the structure may show the parent alone.

Assay [1] addresses T1, hNav1.7 (Homo sapiens (Human), UniProt Q15858). Description: Electrophysiological assay (EP), voltage clamp on Syncropatch 384PE, CHO cells stably expressing Nav1.7. It is filed as cell-based. The following applies: holding potential −50 mV, 7.5 min compound incubation, read-out: EP_SP hNav1.7 EVO IC50. From the text: Example 93C. Electrophysiological Assay (EP) (In Vitro Assay)
Patch voltage clamp electrophysiology allows for the direct measurement and quantification of block of voltage-gated sodium channels (NaV's), and allows the determination of the time- and voltage-dependence of block which has been interpreted as differential binding to the resting, open, and inactivated states of the sodium channel (Hille, B., Journal of General Physiology (1977), 69: 497-515).
The following voltage clamp electrophysiology studies are performed on representative compounds using cells heterologously expressing Nav1.7 or Nav1.5 channels. cDNAsfor Nav1.7 (NM_002977) and Nav1.5 (AC137587) are stably expressed in Chinese Hamstr Ovary (CHO) cells and CHL (Chinese Hamster Lung) cells respectively. Sodium currents are measured in the whole-cell configuration using Syncropatch 384PE (Nanlon Technologies, Germany). 1NPC®-384 chips with custom medium resistance and single hole mode are used. Internal solution consists of (in mM): […], 10 […], 20 EGTA, and 10 Hepes (pH adjusted to 7.2); and external solution contains (in mM): 60 NMDG, 80 NaCl, 4 KCl, 1 MgCl2, 2 CaCl2, 2 D-Glucose monohydrate, 10 Hepes (pH adjusted to 7.4 with NaOH).
After system flushing, testing compounds are dissolved in external solution containing 0.1% Pluronic F-127. The chip is moved into the measuring head and the instrument primes the chip with external and internal solutions. 10 μl cells are added to the chip from a cell hotel, and a negative pressure of −50 mBar is applied to form a seal. Following treatment with seal enhancer solution and wash-off with external solution, negative pressure of −250 mbar is applied for 1 second to achieve the whole-cell configuration, followed by three washing steps in external solution. 20 μl of compounds is added to 40 μl in each well (1:3 dilution of compounds), and after mixing, 20 μl is removed so the volume is retained at 40 μl. After approximately 13 minutes recordings, 20 μl/well of 2 uM TTX, or 333 uM Tetracaine (for Nav1.5) is added to achieve full block.
For voltage protocol, an holding potential of −50 mV is applied during the whole experiment. A depolarizing step is applied to −10 mV for 10 ms, followed by a hyperpolarization step to −150 mV for 20 ms to allow channel recovery from inactivation. A second depolarizing step is applied from −150 mV to −10 mV for 10 ms, where currents are measured to derive blocking effects of compounds. Inhibition is determined based on 7.5 min of compound incubation.
Target sequence in this assay (Q15858 other isoform, or with tags, fused parts or gaps): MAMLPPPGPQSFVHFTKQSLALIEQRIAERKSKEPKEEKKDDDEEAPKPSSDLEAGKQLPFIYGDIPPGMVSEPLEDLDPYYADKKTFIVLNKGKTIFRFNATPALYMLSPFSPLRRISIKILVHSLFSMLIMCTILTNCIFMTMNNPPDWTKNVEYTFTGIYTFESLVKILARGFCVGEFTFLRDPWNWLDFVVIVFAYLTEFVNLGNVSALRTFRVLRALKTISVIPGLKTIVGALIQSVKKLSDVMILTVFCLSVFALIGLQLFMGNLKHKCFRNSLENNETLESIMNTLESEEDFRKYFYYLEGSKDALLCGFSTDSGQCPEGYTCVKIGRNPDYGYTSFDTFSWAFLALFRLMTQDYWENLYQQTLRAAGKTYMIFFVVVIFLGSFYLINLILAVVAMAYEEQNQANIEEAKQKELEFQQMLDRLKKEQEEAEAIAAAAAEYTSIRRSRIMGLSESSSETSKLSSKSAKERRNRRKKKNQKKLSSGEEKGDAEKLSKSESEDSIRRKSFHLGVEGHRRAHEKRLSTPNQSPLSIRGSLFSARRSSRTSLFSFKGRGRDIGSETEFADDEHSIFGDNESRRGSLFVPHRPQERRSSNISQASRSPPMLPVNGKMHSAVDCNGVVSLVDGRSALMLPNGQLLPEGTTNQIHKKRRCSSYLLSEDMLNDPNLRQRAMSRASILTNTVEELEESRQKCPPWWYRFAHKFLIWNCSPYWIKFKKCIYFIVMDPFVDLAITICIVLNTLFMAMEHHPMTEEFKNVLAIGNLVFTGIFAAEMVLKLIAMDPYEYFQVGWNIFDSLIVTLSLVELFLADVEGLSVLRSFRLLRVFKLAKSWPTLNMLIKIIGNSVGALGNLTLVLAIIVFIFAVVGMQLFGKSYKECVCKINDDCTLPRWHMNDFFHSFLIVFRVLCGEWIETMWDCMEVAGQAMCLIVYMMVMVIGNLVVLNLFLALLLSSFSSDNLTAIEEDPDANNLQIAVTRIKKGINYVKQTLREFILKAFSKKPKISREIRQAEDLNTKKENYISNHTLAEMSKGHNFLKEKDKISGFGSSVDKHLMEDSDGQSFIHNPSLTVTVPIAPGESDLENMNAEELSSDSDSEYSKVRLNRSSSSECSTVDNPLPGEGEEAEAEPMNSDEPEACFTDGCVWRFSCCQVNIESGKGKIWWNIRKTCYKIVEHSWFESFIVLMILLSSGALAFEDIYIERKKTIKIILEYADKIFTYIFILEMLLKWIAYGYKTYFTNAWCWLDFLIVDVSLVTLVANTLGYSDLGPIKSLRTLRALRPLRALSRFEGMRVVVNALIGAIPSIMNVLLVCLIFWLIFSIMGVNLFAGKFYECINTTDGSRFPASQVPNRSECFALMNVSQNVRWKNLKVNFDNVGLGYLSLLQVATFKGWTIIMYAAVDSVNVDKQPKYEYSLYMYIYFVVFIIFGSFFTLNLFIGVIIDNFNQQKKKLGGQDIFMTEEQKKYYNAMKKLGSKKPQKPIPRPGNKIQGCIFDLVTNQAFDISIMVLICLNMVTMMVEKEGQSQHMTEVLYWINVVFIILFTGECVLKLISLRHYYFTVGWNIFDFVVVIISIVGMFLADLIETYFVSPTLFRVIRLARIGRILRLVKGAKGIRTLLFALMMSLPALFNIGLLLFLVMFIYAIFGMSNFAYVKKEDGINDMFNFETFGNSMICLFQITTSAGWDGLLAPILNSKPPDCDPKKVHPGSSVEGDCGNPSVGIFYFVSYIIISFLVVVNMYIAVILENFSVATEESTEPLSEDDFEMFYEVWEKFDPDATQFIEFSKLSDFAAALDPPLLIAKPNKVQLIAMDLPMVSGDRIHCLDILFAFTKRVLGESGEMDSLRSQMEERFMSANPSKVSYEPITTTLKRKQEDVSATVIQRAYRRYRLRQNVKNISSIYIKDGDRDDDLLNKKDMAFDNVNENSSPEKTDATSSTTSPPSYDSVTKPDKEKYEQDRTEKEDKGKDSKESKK

For assay [2], the target named is T1, hNav1.7. Description: Tritiated compound binding to membranes from cells heterologously expressing hNav1.7 and the β1 subunit (Nav1.7 LBA). The following applies: competitive binding vs [3H]compound, membranes with hNav1.7 and β1 subunit; read-out: Nav1.7 LBA EVO IC50. On the procedure:
Example 93A. Tritiated Compound Binding to Membranes Isolated from Cells that Heterologously Express hNav1.7 and the β1 Subunit
Preparation of membranes containing recombinantly expressed sodium channels: Frozen recombinant cell pellets are thawed on ice and diluted to 4 times the cell pellet weight with ice cold 50 mM Tris HCl, pH 7.4 buffer. The cell suspensions are homogenized on ice using a motorized glass dounce homogeniser. Homogenates are further diluted 8.4 times with ice cold 50 mM Tris HCl, pH 7.4 buffer and then centrifuged at 200×g at 4° C. for 15 minutes. The supernatants are collected and centrifuged at 10000×g at 4° C. for 50 min. The pellets are then re-suspended in 100 mM NaCl, 20 mM Tris HCl, pH 7.4 buffer containing 1% v/v protease inhibitors (Calbiochem) and re-homogenized on ice. The homogenized membranes are then processed through a syringe equipped with a 26 gauge needle. Protein concentrations arer determined by Bradford Assay and the membranes are stored at −80° C.
Saturation experiments. A competitive NaV1.7 inhibitor having a methyl group is tritiated. Three tritiums are incorporated in place of methyl hydrogens to generate [^3H]compound. Binding of this radioligand is performed in 5 mL borosilicate glass test tubes at room temperature. Binding is initiated by adding membranes to increasing concentrations of [^3H]compound in 100 mM NaCl, 20 mM Tris HCl, pH 7.4 buffer containing 0.01% w/v bovine serum albumin (BSA) for 18 h. Non-specific binding is determined in the presence of 1 μM unlabeled compound. After 18 h, the reactants are filtered through GF/C glass fiber filters presoaked in 0.5% w/v polyethylene imine. Filters are washed with 15 mL ice cold 100 mM NaCl, 20 mM Tris HCl, pH7.4 buffer containing 0.25% BSA to separate bound from free ligand. [^3H]compound bound to filters is quantified by liquid scintillation counting.
Binding reactions are performed in 96-well polypropylene plates at room temperature for 18 h. In 360 μL, membranes are incubated with […] [^3H]compound and increasing concentrations of Test Compound. Non-specific binding is defined in the presence of 1 μM unlabeled compound. Reactions are transferred and filtered through 96-well glass fiber/C filter plates presoaked with 0.5% polyethylene imine. The filtered reactions are washed 5 times with 200 μL ice cold buffer containing 0.25% BSA. Bound radioactivity is determined by liquid scintillation counting.
Data Analysis: For saturation experiments, non-specific binding is subtracted from total binding to provide specific binding and these values are recalculated in terms of pmol ligand bound per mg protein. Saturation curves are constructed and dissociation constants are calculated using the single site ligand binding model: Beq=(Bmax*X)/(X+Kd), where Beq is the amount of ligand bound at equilibrium, Bmax is the maximum receptor density, Kd is the dissociation constant for the ligand, and X is the free ligand concentration. For competition studies percent inhibition is determined and IC50 values are calculated using a 4 parameter logistic model (% inhibition=(A+((B−A)/(1+((x/C)^D)))) using XLfit, where A and B are the maximal and minimum inhibition respectively, C is the IC50 concentration and D is the (Hill) slope.
Example 93B. Tritiated Compound Binding to Membranes Isolated from Cells that Heterologous Express hNav1.7 and the β1 Subunit
Following the procedure described in Example 93A, and making modifications as required to: centrifuge supernatants at 100000×g instead of 10000×g; re-suspend pellets in a buffer containing 0.01% BSA in addition to 100 mM NaCl, 20 mM Tris HCl, pH 7.4 buffer, and 1% v/v proteasome inhibitors; and storing membranes at −80° C. in single use aliquots instead of pooled. […]
Target sequence in this assay (Q15858 whole entry, looked up): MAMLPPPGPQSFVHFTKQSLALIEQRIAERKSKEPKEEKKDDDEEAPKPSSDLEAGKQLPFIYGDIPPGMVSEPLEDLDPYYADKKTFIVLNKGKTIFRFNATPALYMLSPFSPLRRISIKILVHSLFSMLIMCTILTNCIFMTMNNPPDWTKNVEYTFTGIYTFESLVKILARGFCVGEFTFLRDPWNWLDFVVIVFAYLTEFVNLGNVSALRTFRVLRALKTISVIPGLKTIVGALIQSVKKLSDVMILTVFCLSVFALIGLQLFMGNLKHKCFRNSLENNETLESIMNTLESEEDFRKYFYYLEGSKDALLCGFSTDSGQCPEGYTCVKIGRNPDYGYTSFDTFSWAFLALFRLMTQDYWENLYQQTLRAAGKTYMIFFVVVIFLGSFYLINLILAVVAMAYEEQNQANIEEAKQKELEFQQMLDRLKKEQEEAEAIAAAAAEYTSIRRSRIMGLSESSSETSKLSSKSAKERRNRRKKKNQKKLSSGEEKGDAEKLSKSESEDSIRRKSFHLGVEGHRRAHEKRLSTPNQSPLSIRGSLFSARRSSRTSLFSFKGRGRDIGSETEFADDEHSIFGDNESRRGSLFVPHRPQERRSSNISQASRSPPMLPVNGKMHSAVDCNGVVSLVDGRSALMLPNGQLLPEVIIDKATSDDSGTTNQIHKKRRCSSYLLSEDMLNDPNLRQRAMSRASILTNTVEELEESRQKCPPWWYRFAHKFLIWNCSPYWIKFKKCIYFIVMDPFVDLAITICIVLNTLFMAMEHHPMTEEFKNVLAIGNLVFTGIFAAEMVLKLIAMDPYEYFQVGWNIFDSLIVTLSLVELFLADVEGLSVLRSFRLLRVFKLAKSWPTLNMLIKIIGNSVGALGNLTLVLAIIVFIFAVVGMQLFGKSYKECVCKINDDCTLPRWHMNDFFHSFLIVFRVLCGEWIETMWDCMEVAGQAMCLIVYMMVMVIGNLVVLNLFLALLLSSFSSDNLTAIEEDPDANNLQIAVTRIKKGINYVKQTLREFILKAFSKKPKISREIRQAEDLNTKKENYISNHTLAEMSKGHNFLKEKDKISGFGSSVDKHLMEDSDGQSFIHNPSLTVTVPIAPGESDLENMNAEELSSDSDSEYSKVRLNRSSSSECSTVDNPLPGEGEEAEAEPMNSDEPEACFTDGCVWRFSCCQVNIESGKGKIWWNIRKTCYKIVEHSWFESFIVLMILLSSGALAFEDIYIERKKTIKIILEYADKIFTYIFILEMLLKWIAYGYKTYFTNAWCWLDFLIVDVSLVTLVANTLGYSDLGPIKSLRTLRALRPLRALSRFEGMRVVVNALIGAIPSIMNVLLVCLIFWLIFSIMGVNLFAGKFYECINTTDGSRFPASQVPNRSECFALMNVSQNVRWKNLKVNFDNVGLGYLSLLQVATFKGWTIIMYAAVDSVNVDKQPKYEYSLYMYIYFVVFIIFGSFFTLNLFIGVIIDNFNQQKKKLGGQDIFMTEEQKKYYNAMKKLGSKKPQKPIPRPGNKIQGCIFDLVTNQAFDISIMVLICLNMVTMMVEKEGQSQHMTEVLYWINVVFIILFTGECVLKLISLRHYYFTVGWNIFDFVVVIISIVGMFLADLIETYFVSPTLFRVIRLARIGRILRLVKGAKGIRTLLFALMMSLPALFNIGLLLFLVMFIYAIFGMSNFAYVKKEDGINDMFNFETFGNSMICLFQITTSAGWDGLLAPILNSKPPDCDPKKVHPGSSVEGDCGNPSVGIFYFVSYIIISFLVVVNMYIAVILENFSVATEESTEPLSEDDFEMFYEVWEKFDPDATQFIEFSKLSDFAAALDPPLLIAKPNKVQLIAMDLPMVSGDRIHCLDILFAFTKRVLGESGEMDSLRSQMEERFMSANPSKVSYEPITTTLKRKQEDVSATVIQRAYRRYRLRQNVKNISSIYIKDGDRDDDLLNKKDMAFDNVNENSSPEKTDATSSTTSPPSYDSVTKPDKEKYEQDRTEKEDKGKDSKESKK
Target sequence in this assay (Q07699 whole entry partner, looked up): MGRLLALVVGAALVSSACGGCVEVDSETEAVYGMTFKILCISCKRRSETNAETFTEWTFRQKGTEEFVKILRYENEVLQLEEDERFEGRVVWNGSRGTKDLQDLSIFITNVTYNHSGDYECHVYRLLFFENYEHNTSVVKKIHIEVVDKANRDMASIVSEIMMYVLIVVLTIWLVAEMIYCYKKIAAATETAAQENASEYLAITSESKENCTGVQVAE

In the case of `CN(C)[C@H]1C[C@@H](Cc2cccc(C(F)(F)F)c2)CC[C@@H]1Nc1cc(F)c(S(=O)(=O)Nc2ccncn2)cc1Cl` [Example 8, 5-chloro-4-(((1S,2S,4R)-2-(dimethylamino)-4-(3-(trifluoromethyl)benzyl)cyclohexyl)amino)-2-fluoro-N-(pyrimidin-4-yl)benzenesulfonamide], the IC50 is 0.991 nM on hNav1.7 [1] and 6.45 nM at hNav1.7 [2].
The like results for `O=CO.[2H]C([2H])([2H])N([C@H]1C[C@@H](c2cccc(C(F)(F)F)c2)CC[C@@H]1Nc1cc(F)c(S(=O)(=O)Nc2ccncn2)cc1Cl)C([2H])([2H])[2H]` [Example 9, 4-[[(1S,2S,4S)-2-[bis(trideuteriomethyl)amino]-4-[3-(trifluoromethyl)phenyl]-cyclohexyl]amino]-5-chloro-2-fluoro-N-pyrimidin-4-yl-benzenesulfonamide formate] were, in that order, 0.694 nM and 0.681 nM.
With `CN(C)[C@H]1C[C@@H](c2cccc(C(F)(F)F)c2)CC[C@@H]1n1ccc2cc(S(=O)(=O)Nc3ccncn3)c(F)cc21` [Example 10, 1-((1S,2S,4S)-2-(Dimethylamino)-4-(3-(trifluoromethyl)phenyl)cyclohexyl)-6-fluoro-N-(pyrimidin-4-yl)-1H-indole-5-sulfonamide formate], the concentration for half-maximal inhibition (IC50) at hNav1.7 [1] turned out to be 2.74 nM; at hNav1.7 [2], 25.8 nM.
The like results for `Cc1cccc([C@H]2CC[C@H](Nc3cc(F)c(S(=O)(=O)Nc4ccncn4)cc3Cl)[C@@H](N(C)C)C2)c1` [Example 11, 5-Chloro-4-(((1S,2S,4S)-2-(dimethylamino)-4-(m-tolyl)cyclohexyl)amino)-2-fluoro-N-(pyrimidin-4-yl)benzenesulfonamide formate] were, in that order, 1.64 nM and 7.57 nM.
In the case of `CN(C)[C@H]1C[C@@H](c2cc(C(F)(F)F)cc(C(F)(F)F)c2)CC[C@@H]1Nc1cc(F)c(S(=O)(=O)Nc2ccncn2)cc1Cl` [Example 12, 4-(((1S,2S,4S)-4-(3,5-bis(trifluoromethyl)phenyl)-2-(dimethylamino)cyclohexyl)amino)-5-chloro-2-fluoro-N-(pyrimidin-4-yl)benzenesulfonamide], the figures for the half-inhibitory concentration (IC50) on hNav1.7 [1] and on hNav1.7 [2] were 0.531 nM and 0.473 nM, respectively.
Taken in the same sequence, the figures for `CN(C)[C@H]1C[C@@H](c2cc(C(F)(F)F)cc(C(F)(F)F)c2)CC[C@@H]1Nc1cc(F)c(S(=O)(=O)Nc2ccncn2)cc1F` [Example 13, 4-(((1S,2S,4S)-4-(3,5-bis(trifluoromethyl)phenyl)-2-(dimethylamino)cyclohexyl)amino)-2,5-difluoro-N-(pyrimidin-4-yl)benzenesulfonamide] were 0.652 nM and 1.36 nM.
The like results for `CN(C)[C@H]1C[C@@H](c2cccc(OC(F)F)c2)CC[C@@H]1Nc1cc(F)c(S(=O)(=O)Nc2ccncn2)cc1Cl` [Example 14, 5-Chloro-4-[[(1S,2S,4S)-4-[3-(difluoromethoxy)phenyl]-2-(dimethylamino)-cyclohexyl]amino]-2-fluoro-N-pyrimidin-4-yl-benzenesulfonamide] were, in that order, 1.63 nM and 4.64 nM.
The like results for `CN(C)[C@H]1C[C@@H](c2cc(F)cc(C(F)(F)F)c2)CC[C@@H]1Nc1cc(F)c(S(=O)(=O)Nc2ccncn2)cc1Cl` [Example 15, 5-Chloro-4-[[(1S,2S,4S)-2-(dimethylamino)-4-[3-fluoro-5-(trifluoromethyl)phenyl]-cyclohexyl]amino]-2-fluoro-N-pyrimidin-4-yl-benzenesulfonamide formic acid] were, in that order, 0.61 nM and 0.886 nM.
In the case of `CN(C)[C@H]1C[C@@H](c2cccc(C(F)(F)F)c2F)CC[C@@H]1Nc1cc(F)c(S(=O)(=O)Nc2ccncn2)cc1Cl` [Example 16, 5-chloro-4-(((1S,2S,4S)-2-(dimethylamino)-4-(2-fluoro-3-(trifluoromethyl)phenyl)-cyclohexyl)-amino)-2-fluoro-N-(pyrimidin-4-yl)benzenesulfonamide], the values for the concentration for half-maximal inhibition (IC50) on hNav1.7 [1] and on hNav1.7 [2] were 0.923 nM and 1.2 nM, respectively.
The like results for `CN(C)[C@H]1C[C@@H](c2cc(C(F)(F)F)ccc2F)CC[C@@H]1Nc1cc(F)c(S(=O)(=O)Nc2ccncn2)cc1Cl` [Example 17, 5-chloro-4-(((1S,2S,4S)-2-(dimethylamino)-4-(2-fluoro-5-(trifluoromethyl)phenyl)cyclohexyl)-amino)-2-fluoro-N-(pyrimidin-4-yl)benzenesulfonamide] were, in that order, 1.55 nM and 1.03 nM.
The like results for `CN(C)[C@H]1C[C@@H](c2cccc(C3(C(F)(F)F)CC3)c2)CC[C@@H]1Nc1cc(F)c(S(=O)(=O)Nc2ccncn2)cc1Cl` [Example 18, 5-chloro-4-(((1S,2S,4S)-2-(dimethylamino)-4-(3-(1-(trifluoromethyl)cyclopropyl)phenyl)-cyclohexyl)amino)-2-fluoro-N-(pyrimidin-4-yl)benzenesulfonamide] were, in that order, 0.263 nM and 0.67 nM.
Taken in the same sequence, the figures for `CN(C)[C@H]1C[C@@H](c2cccc(OC(F)(F)F)c2)CC[C@@H]1Nc1cc(F)c(S(=O)(=O)Nc2ccncn2)cc1F` [Example 19, 4-(((1S,2S,4S)-2-(dimethylamino)-4-(3-(trifluoromethoxy)phenyl)cyclohexyl)amino)-2,5-difluoro-N-(pyrimidin-4-yl)benzenesulfonamide] were 0.673 nM and 1.36 nM.
For the compound `CN(C)[C@H]1C[C@@H](c2cccc(-n3cccn3)c2)CC[C@@H]1Nc1cc(F)c(S(=O)(=O)Nc2ccncn2)cc1Cl` [Example 20, 4-(((1S,2S,4S)-4-(3-(1H-pyrazol-1-yl)phenyl)-2-(dimethylamino)cyclohexyl)amino)-5-chloro-2-fluoro-N-(pyrimidin-4-yl)benzenesulfonamide formate], the IC50 was 7.38 nM at hNav1.7 [1] and 9.43 nM at hNav1.7 [2].
